The source made the active and inactive calls. No rule for the calls is given here.

This assay concerns the target Influenza A virus M2 proton channel (A/TW/4845/1999 H1N1). Kind of assay: M2 proton channel binding, NMR based, influenza A virus H1N1 strain (AID 1549). Particulars: NMR binding screen, M2 protein.
Turning to `COc1ccc(-c2cc3nc4n(c(=O)c3s2)CCC4)cc1`, the Kd is > 4 mM (inactive).
The same measure for `COc1cccc(=O)c2c(C)n(C)c(C)c12`: > 4 mM (inactive); for `C/C=C/COc1nc2c(c(=O)n(C)c(=O)n2C)n1C`: > 4 mM (inactive); for `O[C@H]1C=C2CCN3Cc4cc5c(cc4C(C23)[C@@H]1O)OCO5` (stereo partly drawn): > 4 mM (inactive).
For `O=C(O)C1CC(=O)N(Cc2ccco2)C1` (stereo not drawn), the Kd is > 4 mM (inactive).
For the compound `OCc1ncoc1-c1ccccc1`, the Kd is > 4 mM (inactive).
In the case of `CN(C)C(=O)CCNS(=O)(=O)c1ccccc1` it was > 4 mM (inactive); in that of `CC(C)=CCC/C(C)=C/CC/C(C)=C/CC/C(C)=C/CC/C(C)=C/CC/C(C)=C/CC/C(C)=C/CC/C(C)=C/CC/C(C)=C/CO`, > 4 mM (inactive); in that of `COC(=O)c1cc(-c2c(C)nn(-c3ccccc3)c2C)n[nH]1`, > 4 mM (inactive).
As to `CC1=CC(=O)NC2C=CC=CC12` (stereo not drawn), the Kd was > 4 mM (inactive).
In the case of `CCOc1ccc(-c2n[nH]c(=S)n2C)cc1` it was > 4 mM (inactive); in that of `Cc1cc(=O)n2nc(-c3ccccc3)sc2n1`, > 4 mM (inactive).
Take `Cc1nnc(N2CCN(c3ccccc3)CC2)[nH]c1=O`: the Kd is > 4 mM (inactive).
The same measure for `CSc1nsc(SCc2cnc(C)nc2N)n1`: > 4 mM (inactive); for `Cc1cc(C)n(-c2ccc(Cl)nn2)n1`: > 4 mM (inactive); for `O=C(CC1NCCNC1=O)Nc1ccccc1` (stereo not drawn): > 4 mM (inactive).
The same measure for `NC(=O)CN1CCCCCC1=O`: > 4 mM (inactive); for `CC(=O)N1N=C(N)SC1c1cccnc1` (stereo not drawn): > 4 mM (inactive); for `COc1ccccc1NS(=O)(=O)c1c[nH]c(=O)[nH]c1=O`: > 4 mM (inactive).
In the case of `COc1cc(O)cc(/C=C/c2ccccc2)c1` it was > 4 mM (inactive); in that of `c1ccc(C[N+]23CCN(CC2)c2ccccc23)cc1`, > 4 mM (inactive).
Turning to `O=C(O)c1ccc2occc2c1`, the Kd was > 4 mM (inactive).
With `NCCNC(=S)Nc1ccccc1`, the Kd is > 4 mM (inactive).
The same measure for `Nc1ncnc(NCc2cccnc2)c1[N+](=O)[O-]`: > 4 mM (inactive); for `CN(C)C(=O)c1ccccc1-c1ccccc1`: > 4 mM (inactive); for `Cc1nc2ccc(C(=O)N3CCSCC3)cc2s1`: > 4 mM (inactive).
In the case of `CCC(CO)NC(=O)c1snnc1C` (stereo not drawn), the Kd was > 4 mM (inactive).
In the case of `CN1CN(Cc2ccccc2)CN/C1=N/[N+](=O)[O-]` it was > 4 mM (inactive); in that of `O=C(Nc1nccs1)c1cccnc1`, > 4 mM (inactive).
The same measure for `CC(C)C(C)/C=C/C(C)[C@H]1CCC2C3=CCC4CC(=O)CC[C@]4(C)C3CC[C@@]21C` (stereo partly drawn): > 4 mM (inactive); for `O=C1CC(=O)N(c2ccccc2)c2ccccc21`: > 4 mM (inactive); for `NC1=NC(=O)CC(C(=O)Nc2ccccc2)S1` (stereo not drawn): > 4 mM (inactive).
In the case of `Nc1ccc(CN2CCOCC2)cc1` it was > 4 mM (inactive); in that of `Cc1cc(C(=O)Nc2ccc3c(c2)OCO3)cs1`, > 4 mM (inactive); in that of `O=c1[nH]cc(NCc2ccccc2)c(=O)[nH]1`, > 4 mM (inactive).
In the case of `C[N+](C)(C)CC(O)CC(=O)O` (stereo not drawn), the Kd is > 4 mM (inactive).
In the case of `c1ccc(Cc2nnc3sc(-c4ccncc4)nn23)cc1` it was > 4 mM (inactive); in that of `O=C1c2ccccc2C(=O)N1OCc1ccccc1`, > 4 mM (inactive).
In the case of `N#Cc1nc(N2CCCCC2)nc(N2CCOCC2)n1` it was > 4 mM (inactive); in that of `Cc1nnc2ccc(N3CCCC3)nn12`, > 4 mM (inactive); in that of `Cc1sc2nc(SCC(=O)N(C)C)[nH]c(=O)c2c1C`, > 4 mM (inactive).
The same measure for `Cc1ccc(-c2c(C)n([O-])c3c([n+]2=O)CCCC3)o1`: > 4 mM (inactive); for `Cn1cnnc1SCCCNC(=O)Nc1ncccn1`: > 4 mM (inactive).
As for `O=C(O[C@@H]1Cc2c(O)cc(O)cc2O[C@@H]1c1cc(O)c(=O)c2c(O)c(O)cc([C@H]3Oc4cc(O)cc(O)c4C[C@H]3OC(=O)c3cc(O)c(O)c(O)c3)c2c1)c1cc(O)c(O)c(O)c1`, the Kd was > 4 mM (inactive).
The same measure for `CC(=O)CS(=O)(=O)c1ccccc1`: > 4 mM (inactive); for `C=CCN1CC[C@]23c4c5ccc(O)c4OC2C(=O)CC[C@@]3(O)[C@H]1C5` (stereo partly drawn): > 4 mM (inactive).
With `CC(=O)NC(O)C(=O)c1ccccc1` (stereo not drawn), the Kd was > 4 mM (inactive).
Take `Cc1ccc2c(c1)CCCN2C(=O)c1c(C)noc1C`: the Kd is > 4 mM (inactive).
Take `Nc1cc(N)nc(SCc2cccnc2)n1`: the Kd is > 4 mM (inactive).
For the compound `COC(=O)C[C@@H]1C2(C)C(=O)[C@@H](CC3=C4CC(O)O[C@@H](c5ccoc5)[C@]4(C)CCC32)[C@H](O)C1(C)C` (stereo partly drawn), the Kd is > 4 mM (inactive).
The same measure for `Cc1ncoc1C(=O)Nc1ncc([N+](=O)[O-])s1`: > 4 mM (inactive); for `Cc1cc(C)nc(/N=C(/N)N2CCN(C)CC2)n1`: > 4 mM (inactive).
In the case of `O=P(c1ccccc1)(c1ccccc1)C1CCOCC1` it was > 4 mM (inactive); in that of `O=C(Cc1cccs1)Nc1ccccn1`, > 4 mM (inactive).
Turning to `CC(C)CC(=O)Nc1c[nH]c(=O)[nH]c1=O`, the Kd was > 4 mM (inactive).
The same measure for `Cc1ccc(N2C(=O)CC(Sc3ncn[nH]3)C2=O)cc1` (stereo not drawn): > 4 mM (inactive); for `OCC12COC3c4ccccc4C(OC1)N32` (stereo not drawn): > 4 mM (inactive).
The same measure for `Cc1onc(-c2ccccc2)c1C(=O)O`: > 4 mM (inactive).
Consider `CC(C)c1ccc2c(c1)CCC1[C@](C)(CN)CCC[C@]21C` (stereo partly drawn), for which the Kd is > 4 mM (inactive).
In the case of `CC(=O)NC(=S)Nc1ccccc1C(N)=O` it was > 4 mM (inactive).
The same measure for `Cc1ccc(S(=O)(=O)CC(=O)N(C)C)cc1`: > 4 mM (inactive); for `CCCCCC1C(=O)CCC1CC(=O)O` (stereo not drawn): > 4 mM (inactive).
In the case of `CCOc1ccc(Cl)cc1S(=O)(=O)N1CCCC1` it was > 4 mM (inactive).
With `O=C1NC(=O)/C(=C\c2ccncc2)S1`, the Kd was > 4 mM (inactive).
The same measure for `CC(CCC(=O)O)[C@H]1CCC2C3C[C@H](O)[C@@H]4C[C@H](O)CC[C@]4(C)C3CC[C@@]21C` (stereo partly drawn): > 4 mM (inactive); for `O=C(/C=C/c1ccccc1)NC1CCS(=O)(=O)C1` (stereo not drawn): > 4 mM (inactive); for `CCOC(=O)c1[nH]cnc1C(=O)OC(C)C`: > 4 mM (inactive).
The same measure for `CCN1CCC(NC2CCC(O)CC2)CC1` (stereo not drawn): > 4 mM (inactive).
The same measure for `CN(C)c1nc(N)nc(Cn2ccnc2)n1`: > 4 mM (inactive); for `COc1cc(O)ccc1C(C)=O`: > 4 mM (inactive); for `FC(F)(F)c1nnc2ccc(N3CCOCC3)nn12`: > 4 mM (inactive).
Consider `CCN1CCC(=NO)CC1`, for which the Kd was > 4 mM (inactive).
In the case of `COc1ccc(C(N)=O)cc1N` it was > 4 mM (inactive).
In the case of `O=C(O)CN1CCNCC1` it was > 4 mM (inactive); in that of `Cc1nn(-c2ccccc2)nc1CN`, > 4 mM (inactive); in that of `Cc1cc(=O)[nH]c(NCC(=O)O)n1`, > 4 mM (inactive).
For the compound `Nc1ccc(Cc2ccncc2)cc1`, the Kd is > 4 mM (inactive).
For `Cc1ccc(NC(=O)CN2C(=O)CSC2=O)cc1`, the Kd was > 4 mM (inactive).
In the case of `O=C1NC(=S)NC(=O)C1=Cc1ccco1` it was > 4 mM (inactive).
Consider `O=c1[nH]c(=O)c2[nH]cnc2[nH]1`, for which the Kd is > 4 mM (inactive).
In the case of `COc1cc([C@@H]2c3cc4c(c(O)c3C[C@H]3COC(=O)[C@@H]32)OCO4)cc(OC)c1OC` it was > 4 mM (inactive); in that of `OCC1Cc2ccccc2N1` (stereo not drawn), > 4 mM (inactive).
For `Cc1cccc(NS(=O)(=O)c2cccs2)n1`, the Kd was > 4 mM (inactive).
In the case of `CC(=O)c1sc(NC(=O)C=C(C)C)nc1C` it was > 4 mM (inactive); in that of `COc1ccc2c(c1)OC[C@@H](Cc1ccc(OC)c(OC)c1)[C@@H]2O`, > 4 mM (inactive).
In the case of `Cc1nnc(NCCCO)[nH]c1=O` it was > 4 mM (inactive).
In the case of `C=C1C(=O)O[C@@H]2C3OC3(C)CC/C=C(\C)CC[C@@H]12` (stereo partly drawn) it was > 4 mM (inactive).
On to `NC(=O)CSc1nc2[nH]ncc2c(=O)[nH]1`, for which the Kd is > 4 mM (inactive).
In the case of `CC1=C(C(N)=O)C(c2ccccc2)NC(=O)N1` (stereo not drawn) it was > 4 mM (inactive); in that of `CN(C)c1ccc2c(=O)[nH][nH]c(=O)c2c1`, > 4 mM (inactive); in that of `CC(=O)c1ccc(N2C(=O)C(C(C)C)NC2=S)cc1` (stereo not drawn), > 4 mM (inactive).
As for `CSc1ncc(CO)n1Cc1ccccc1`, the Kd is > 4 mM (inactive).
In the case of `O=C(O)c1ccc2c(c1)OCCO2` it was > 4 mM (inactive); in that of `O=C1CC(c2ccccc2)n2ncnc2N1` (stereo not drawn), > 4 mM (inactive); in that of `COc1cccc(-c2cc(=O)c3cc(OC)ccc3o2)c1`, > 4 mM (inactive).
The same measure for `COc1ccc(S(=O)(=O)N2CCC(C(N)=O)CC2)cc1`: > 4 mM (inactive).
In the case of `CC1C[C@H]2CC(=O)[C@H]3CCCN4CCC[C@H]2[C@]34C1` (stereo partly drawn) it was > 4 mM (inactive); in that of `CC(C)(O)P(C)(=O)c1ccccc1` (stereo not drawn), > 4 mM (inactive); in that of `c1ccc2c(c1)nnn2C1CCNCC1`, > 4 mM (inactive).
For the compound `CCNS(=O)(=O)c1cc(Br)ccc1OC`, the Kd is > 4 mM (inactive).
The same measure for `S=c1ccc(N2CCCCC2)n[nH]1`: > 4 mM (inactive); for `CN1C(=O)C2C=CC1C1C(=O)N(c3ccccc3)C(=O)C21` (stereo not drawn): > 4 mM (inactive); for `NC(=O)CN1CCC(c2nc3ccccc3[nH]2)CC1`: > 4 mM (inactive).

(Values after PubChem BioAssay AID1549 (Sanford-Burnham Center for Chemical Genomics, 2009).)
